{"source": "ChEMBL document CHEMBL3045800", "about": "(2003)", "key": {"[1]": {"tested_on": "Oryza sativa", "format": "functional,  cv. Nipponbare"}, "[2]": {"tested_on": "Pyricularia oryzae", "experiment": "Inhibition of mycelial growth in Magnaporthe oryzae at 1000 ppm after 7 days by hyphal growth inhibition assay", "format": "functional", "details": "168 h, read-out: INH"}, "[3]": {"tested_on": "Pyricularia oryzae", "experiment": "Inhibition of mycelial growth in Magnaporthe oryzae at 800 ppm after 7 days by hyphal growth inhibition assay", "format": "functional", "details": "168 h, read-out: INH"}, "[4]": {"tested_on": "Pyricularia oryzae", "experiment": "Inhibition of appressorium formation in Magnaporthe oryzae at 40 ppm after 48 hr by microscopy based cellulose membrane method", "format": "functional", "details": "read-out: INH"}, "[5]": {"tested_on": "Pyricularia oryzae", "experiment": "Inhibition of appressorium formation in Magnaporthe oryzae at 80 ppm after 48 hr by microscopy based cellulose membrane method", "format": "functional", "details": "read-out: INH"}, "[6]": {"tested_on": "Pyricularia oryzae", "experiment": "Inhibition of spore germination in Magnaporthe oryzae at 80 ppm after 48 hr", "format": "functional", "details": "read-out: INH"}, "[7]": {"tested_on": "Pyricularia oryzae", "experiment": "Inhibition of appressorium formation in Magnaporthe oryzae at 20 ppm after 48 hr by microscopy based cellulose membrane method", "format": "functional", "details": "read-out: INH"}, "[8]": {"tested_on": "Pyricularia oryzae", "experiment": "Inhibition of appressorium formation in Magnaporthe oryzae at 100 ppm after 48 hr by microscopy based cellulose membrane method", "format": "functional", "details": "read-out: INH"}, "[9]": {"tested_on": "Pyricularia oryzae", "experiment": "Inhibition of spore germination in Magnaporthe oryzae at 40 ppm after 48 hr", "format": "functional", "details": "read-out: INH"}, "[10]": {"tested_on": "Pyricularia oryzae", "experiment": "Inhibition of mycelial growth in Magnaporthe oryzae at 400 ppm after 7 days by hyphal growth inhibition assay", "format": "functional", "details": "168 h, read-out: INH"}, "[11]": {"tested_on": "Pyricularia oryzae", "experiment": "Inhibition of spore germination in Magnaporthe oryzae at 100 ppm after 48 hr", "format": "functional", "details": "read-out: INH"}, "[12]": {"tested_on": "Pyricularia oryzae", "experiment": "Inhibition of mycelial growth in Magnaporthe oryzae at 200 ppm after 7 days by hyphal growth inhibition assay", "format": "functional", "details": "168 h, read-out: INH"}, "[13]": {"tested_on": "Pyricularia oryzae", "experiment": "Inhibition of spore germination in Magnaporthe oryzae at 20 ppm after 48 hr", "format": "functional", "details": "read-out: INH"}}, "data": [{"smiles": "Cn1ncc(C(=O)O)c1Cl", "values": [{"measurement": "ED80", "setting": "[1]", "result": ">5", "unit": "mg"}]}, {"smiles": "Cn1cc(C(=O)O)c(Cl)n1", "values": [{"measurement": "ED80", "setting": "[1]", "result": 0.5, "unit": "mg"}]}, {"smiles": "COC(=O)Nc1cc(Cl)nn1C", "values": [{"measurement": "ED80", "setting": "[1]", "result": ">5", "unit": "mg"}]}, {"smiles": "Cn1nc(Cl)cc1CC(=O)O", "values": [{"measurement": "ED80", "setting": "[1]", "result": 5, "unit": "mg"}]}, {"smiles": "CC(=O)c1cc(Cl)nn1C", "values": [{"measurement": "ED80", "setting": "[1]", "result": 5, "unit": "mg"}]}, {"smiles": "Cn1nc(Cl)cc1C=O", "values": [{"measurement": "ED80", "setting": "[1]", "result": ">5", "unit": "mg"}]}, {"smiles": "COC(=O)c1cc(Cl)nn1C", "values": [{"measurement": "ED80", "setting": "[1]", "result": 0.05, "unit": "mg"}]}, {"smiles": "Cn1nc(Br)cc1C(=O)O", "values": [{"measurement": "ED80", "setting": "[1]", "result": 0.05, "unit": "mg"}]}, {"smiles": "Cc1cc(C(=O)O)n(C)n1", "values": [{"measurement": "ED80", "setting": "[1]", "result": 0.5, "unit": "mg"}]}, {"smiles": "Cn1nccc1C(=O)O", "values": [{"measurement": "ED80", "setting": "[1]", "result": ">5", "unit": "mg"}]}, {"smiles": "Cn1nc(Cl)cc1C(=O)O", "note": "[3-CHLORO-1-METHYL-1H-PYRAZOLE-5-CARBOXYLIC ACID]", "values": [{"measurement": "inhibition at 1000 ppm", "setting": "[2]", "result": 47.5, "unit": "%"}, {"measurement": "inhibition at 800 ppm", "setting": "[3]", "result": 0, "unit": "%"}, {"measurement": "inhibition at 40 ppm", "setting": "[4]", "result": 0, "unit": "%"}, {"measurement": "inhibition at 80 ppm", "setting": "[5]", "result": 10, "unit": "%"}, {"measurement": "inhibition at 80 ppm", "setting": "[6]", "result": 0, "unit": "%"}, {"measurement": "inhibition at 20 ppm", "setting": "[7]", "result": 0, "unit": "%"}, {"measurement": "inhibition at 100 ppm", "setting": "[8]", "result": 41.6, "unit": "%"}, {"measurement": "ED80", "setting": "[1]", "result": 0.05, "unit": "mg"}, {"measurement": "inhibition at 40 ppm", "setting": "[9]", "result": 0, "unit": "%"}, {"measurement": "inhibition at 400 ppm", "setting": "[10]", "result": 0, "unit": "%"}, {"measurement": "inhibition at 100 ppm", "setting": "[11]", "result": 35.4, "unit": "%"}, {"measurement": "inhibition at 200 ppm", "setting": "[12]", "result": 0, "unit": "%"}, {"measurement": "inhibition at 20 ppm", "setting": "[13]", "result": 0, "unit": "%"}]}]}
